Experimental data reported in publication PMC12546632, “The role of cytochrome bc1 inhibitors in future tuberculosis treatment regimens” (Nature Communications, 2025).
Values after ≈ are worked out from the molar mass of the structure shown.

Assays:
M. tuberculosis H37Rv = experiment: MIC90 determination, H37Rv; assay type: cell-based, Mycobacterium tuberculosis; details: Mycobacterium tuberculosis; strain H37Rv (Institut Pasteur, lineage 4); read-out: MIC90
[1] = tested on: M. tuberculosis reference strain H37Rv; experiment: Survival under monotherapy in intravenous model (related to Study C); assay type: in vivo, Mycobacterium tuberculosis; details: for Survival of mice under monotherapy: in vivo, iv; for Day of death, individual mice: intravenous model, monotherapy, read with the 1/0 flag of the same line (96 with flag 0)
[2] = tested on: M. tuberculosis clinical isolates; experiment: microbe, parasite or virus in culture; assay type: cell-based, Mycobacterium tuberculosis; details: Mycobacterium tuberculosis
[3] = tested on: M. tuberculosis ΔcydAB (Parent); experiment: microbe, parasite or virus in culture; assay type: cell-based; details: Mycobacterium tuberculosis

Compound: COc1nc2ccc(Br)cc2cc1[C@@H](c1ccccc1)[C@@](O)(CCN(C)C)c1cccc2ccccc12 [Bedaquiline, bedaquiline, reference compound]
- MIC90 (M. tuberculosis H37Rv): 0.197 µM (≈ 0.109 µg/mL)
- Survival of mice under monotherapy [1]: 100%
- Day of death, individual mice [1]: 96
- MIC90 ([2]; strain Mtb-0617 (Karonga, lineage 3)): 0.431 µM (≈ 0.239 µg/mL)
- MIC90 ([2]; strain Mtb-2703 (Karonga, lineage 3)): 0.064 µM (≈ 0.0356 µg/mL)
- MIC90 ([2]; strain Mtb-4779 (Karonga, lineage 2)): 0.045 µM (≈ 0.025 µg/mL)
- MIC90 ([2]; strain Mtb-4980 (Karonga, lineage 4)): 0.063 µM (≈ 0.035 µg/mL)
- MIC90 ([2]; strain Mtb-6787 (Karonga, lineage 4)): 0.053 µM (≈ 0.0294 µg/mL)
- MIC90 ([2]; strain Mtb-7489 (Karonga, lineage 1)): 0.43 µM (≈ 0.239 µg/mL)
- MIC90 ([2]; strain Mtb-7496 (Karonga, lineage 3)): 0.106 µM (≈ 0.0589 µg/mL)
- MIC90 ([2]; strain Mtb-9271 (Karonga, lineage 4)): 0.05 µM (≈ 0.0278 µg/mL)
- MIC90 ([2]; strain Mtb-61164 (Karonga, lineage 2)): 0.188 µM (≈ 0.104 µg/mL)
- MIC90 ([2]; strain N0054 (Gagneux, lineage 3)): 0.354 µM (≈ 0.197 µg/mL)
- MIC90 ([2]; strain N0072 (Gagneux, lineage 1)): 0.17 µM (≈ 0.0944 µg/mL)
- MIC90 ([2]; strain N1283 (Gagneux, lineage 4)): 0.104 µM (≈ 0.0578 µg/mL)
- MIC50 [3]: 0.05 µM (≈ 0.0278 µg/mL)

Compound: COc1c(N2C[C@@H]3CCCN[C@@H]3C2)c(F)cc2c(=O)c(C(=O)O)cn(C3CC3)c12 [Moxifloxacin, moxifloxacin, reference compound]
- Survival of mice under monotherapy [1]: 100%
- Day of death, individual mice [1]: 96

Compound: CO[C@H]1/C=C/O[C@@]2(C)Oc3c(C)c(O)c4c(O)c(c(/C=N/N5CCN(C)CC5)c(O)c4c3C2=O)NC(=O)/C(C)=C\C=C\[C@H](C)[C@H](O)[C@@H](C)[C@@H](O)[C@@H](C)[C@H](OC(C)=O)[C@@H]1C [Rifampicin, rifampicin]
- MIC50 [3]: 0.1 µM (≈ 0.0823 µg/mL)
